How the values were obtained:
Feline leukemia virus = assay: Antiviral activity against Feline leukemia virus infected in cat CRFK cells assessed as inhibition of viral replication after 7 days by ELISA; format: functional; conditions: 168 h, read-out: ED50 (the source's name)
[1] = Ratio of ID50 for cat CRFK cells to ED50 for Feline leukemia virus
[2] = Cytotoxicity against cat CRFK cells assessed as reduction in cell viability after 5 days by MTT assay; format: cell-based, Felis catus; conditions: read-out: ID50

Row | SMILES | EC50 (Feline leukemia virus) [µM] | Ratio [1] | CC50 at 120 h [2] [µM]
1 | COC1=C(Br)[C@@H](O)[C@]2(C=C1Br)CC(C(=O)NCC(O)c1cc(Br)c(OCC(=O)CNC(=O)C3=NO[C@]4(C=C(Br)C(OC)=C(Br)[C@@H]4O)C3)c(Br)c1)=NO2 (some centres not stated) | 42 | >11 | > 449
2 | COC1=C(Br)[C@@H](O)[C@]2(C=C1Br)CC(C(=O)NCC(O)c1cc(Br)c(OCC(O)CNC(=O)C3=NO[C@]4(C=C(Br)C(OC)=C(Br)[C@@H]4O)C3)c(Br)c1)=NO2 (some centres not stated) [FISTULARIN 3] | 22 | >20 | > 449
3 | Nc1ccn([C@H]2CC[C@@H](CO)O2)c(=O)n1 [ZALCITABINE] | 15 | 133 | 1990
4 | Cc1cn([C@H]2C[C@H](N=[N+]=[N-])[C@@H](CO)O2)c(=O)[nH]c1=O [ZIDOVUDINE] | 0.1 | 15170 | 1520

From ChEMBL document CHEMBL1159023, “Fistularin 3 and 11-ketofistularin 3. Feline leukemia virus active bromotyrosine metabolites from the marine sponge Aplysina archeri” (J Nat Prod, 1992)
